Experimental data taken from patent publication US20250319213A1, “FUNCTIONALIZED BISAMINOTHIOL DERIVATIVES, COMPLEXES WITH THESE BISAMINOTHIOL DERIVATIVES AND USE OF SAID COMPLEXES AS DIAGNOSTICS AND THERAPEUTICS” (ABX ADVANCED BIOCHEMICAL COMPOUNDS – BIOMEDIZINISCHE …, priority 2022, published 2025).

Tests used:
PSMA = biological target: T1, PSMA (Homo sapiens, UniProt Q04609); assay: Direct binding affinity on LNCaP cells (saturation); settings: [99mTc]TcO complex of the listed compound, saturation 0.3-40 nM, 1 h 37° C., mean ± SEM, read-out: Kd [nM] of [99mTc]TcO-complexes
T1 construct: host or cells: LNCaP human prostate carcinoma cells
Protocol: (§1) Competition, saturation and internalization assays were assessed using the high PSMA expressing human prostate carcinoma cell line LNCaP (ATCC® CRL-1740). The cells were grown as monolayer at 37° C. in a humidified atmosphere comprising 5% CO2 and 95% air in RPMI medium including 10% FCS (Merck KGAA, Germany). After washing the confluent cells twice with phosphate buffered saline (PBS) and detaching them with trypsin/EDTA (0.05%/0.02%), the cells were suspended in medium and counted (Casy TT, Omni Life Science, Germany).
For saturation monolayer of LNCaP cells were seeded, 5×10^4 cells/well in 48-well plates two days before the assay. On the day of saturation, after aspirating the medium, 160 μL of medium (for ^99mTc-labeled radioligand with D-mannitol (1 mg/mL)) were pipetted per well, for non-specific binding samples including 100 μM 2-PMPA. After preincubation for 5 min, 40 μL activity ([^68Ga]Ga-PSMA-11 or ^99mTc-labeled radioligand solution) were added (total volume/well: 200 μL). Eight concentrations ranged between 0.3 and 40 nM.
After 1 hour of incubation at 37° C. both for competition and saturation samples, the supernatants were aspirated and the cells washed twice with cold PBS. The cell lawn was lysed with 500 μL NaOH/SDS (0.1 M/1%) by shaking for 3 to 5 minutes. After transferring the lysates into measuring tubes, the activity of the samples was measured in a gamma counter (2480 Automatic Gamma Counter Wizard 2, Perkin Elmer, USA).
The half maximal inhibitory concentrations (IC50) and the dissociations constants (Kd) were calculated by fitting the data using a nonlinear curve-fitting program (GraphPad Prism 9). With the Kd value of [^68Ga]Ga-PSMA-11 on LNCaP and the known concentration of [^68Ga]Ga-PSMA-11 in the competition assay the inhibition constants (Ki) was also determined with the curve-fitting program.

[1] = Product stability in DPBS at 25° C.; format: physicochemical; settings: DPBS (+Ca2+, +Mg2+), mean ± SD
Protocol: (§2) In brief, the freshly produced ^99mTc-labeled radioligand solution (10-20 MBq, 20-100 μL) was added to the respective medium (200-400 μL), vortexed quickly, and shook gently at the respective temperature mentioned below. At certain time points, samples were taken, diluted, and measured by radio-RP-HPLC. Hereby, investigation of plasma samples included protein precipitation with the 4-fold volume of an ice-cold mixture of methanol/water (4/1, v/v), intensive shaking (5 min) and centrifugation (14,000 rpm, 10 min), before inspection of the supernatant. In addition, the recovery of extracted activity was calculated after activity measurement of supernatant and residue by a gamma counter.

LNCaP cells = assay: Determination of the internalization (surface binding and internalized activity); format: cell-based, human; settings: 1 h; for Internalization, 4° C. (% AD/mg Protein) / Internalization, 37° C. (% AD/mg Protein): cytosolic activity; for Internalization, 4° C. (% AD/mg Protein) / Internalization, 37° C. (% AD/mg Protein) / Binding, 4° C. (% AD/mg Protein) / Binding, 37° C. (% AD/mg Protein): 25 nM radioligand, mean ± SEM; for Binding, 4° C. (% AD/mg Protein) / Binding, 37° C. (% AD/mg Protein): surface-bound activity
Protocol: as §1
For internalization LNCaP and PC3 cells were seeded, 1×10^5 cells/well in 24-well plates two days before the assay. On the day of internalization, after aspirating the medium, 100 μL of PBS and, for non-specific binding samples, 100 μL 2-PMPA (100 μM) were pipetted into the wells, followed by 400 μL medium including activity. The concentration of the ^99mTc-labeled radioligands was 25 nM. After 1 h of incubation at 37° C. and adjacent well plates at 4° C., the supernatant was removed and the cells washed with cold PBS. Surface-bound activity was stripped with 4° C. cold acid-wash buffer (0.2 M glycine, pH 2.8) for 5 min. The acid wash buffer was transferred from the plate wells to measuring tubes, as was the PBS buffer after washing once (binding on the surface). Cytosolic activity was determined after treatment with cell lysis buffer (0.1 M NaOH/1% SDS). Cell surface and cytosolic activity were measured separately in a gamma counter. Determination of protein content from cell lysate was performed using a spectrophotometer (NanoDrop, Thermo Fisher Scientific, USA) at an absorbance of 280 nm.

[2] = system: subcutaneous LNCaP tumor xenografts; assay: SPECT/CT and PET/CT imaging in LNCaP tumor bearing mice; format: in vivo; settings: LNCaP tumor bearing mice after 1 h and 4 h (FIG. 5)
Protocol: A prostate cancer xenograft model was generated via subcutaneous injection of human LNCaP cells into the right shoulder of 8-12 week-old male nude mice (Rj:NMRI-Foxn1^nu/nu, Janvier Labs, Le Genest-Saint-Isle, France). Imaging studies were performed when tumors reached a diameter of >6 mm. General anesthesia was induced and maintained with inhalation of 10% (v/v) desflurane in […] oxygen/air. During anesthesia, animals were continuously warmed at 37° C.
Small animal single-photon emission computed tomography (SPECT) was performed using the nanoSPECT/CT scanner (Mediso Medical Imaging Systems) equipped with an APT63 aperture consisting of four M3 multi-pinhole collimators. Each animal received 30 MBq of ^99mTc-labeled compounds delivered in 0.2 mL of Dulbecco's phosphate-buffered saline as a single intravenous injection through a tail vein catheter. Photon emission was recorded using frame times of 60 s (1 h scan: 40-70 min), 90 s (4 h scan, 3.5-4.5 h), and 320 s (20 h scan, 18.5-21.5 h), and binned simultaneously within the 20% energy window of the 140.5 keV photopeak. With each SPECT scan, a corresponding CT image was recorded and used for anatomical referencing and attenuation correction. SPECT images were reconstructed using the Tera-Tomo™ three-dimensional (3D) algorithm at normal range with a voxel size of 0.4 mm and applying corrections for scatter attenuation, and decay.
Small animal positron emission tomography (PET) was performed using the nanoPET/CT scanner (Mediso Medical Imaging Systems). Each animal received 10 MBq of the radiolabeled reference compound [^68Ga]Ga-PSMA-11 delivered in Dulbecco's phosphate-buffered saline as a single intravenous injection through a tail vein catheter. Emission of the 511 keV annihilation photons was recorded continuously at a coincidence mode of 1:5 for 60 min following radiotracer injection. With each PET scan, a corresponding CT image was recorded and used for anatomical referencing and attenuation correction. Three-dimensional list mode data were binned using the 400-600 keV energy window. PET images of the 40-60 min time frame were reconstructed using the Tera-Tomo™ three-dimensional (3D) algorithm with a voxel size of 0.4 mm and applying corrections for random events, scatter, attenuation, and decay.
Three-dimensional VOIs were created applying fixed threshold for delineation of tumor (30%), muscle (0%); and kidneys (39%). Standardized uptake values (SUV=[MBq detected activity/mL tissue]/[MBq injected activity/g body weight], mL/g) were determined and reported as max SUV (VOI-maximum). Time-activity curves were generated and further analyzed using Prism (GraphPad Software, San Diego CA, USA).

[3] = Product stability at room temperature (without addition of any media); format: physicochemical; settings: no media, radio-RP-HPLC
Protocol: as §2

[4] = normalized to fraction immediately after preparation

T1 sequence (Q04609 whole entry): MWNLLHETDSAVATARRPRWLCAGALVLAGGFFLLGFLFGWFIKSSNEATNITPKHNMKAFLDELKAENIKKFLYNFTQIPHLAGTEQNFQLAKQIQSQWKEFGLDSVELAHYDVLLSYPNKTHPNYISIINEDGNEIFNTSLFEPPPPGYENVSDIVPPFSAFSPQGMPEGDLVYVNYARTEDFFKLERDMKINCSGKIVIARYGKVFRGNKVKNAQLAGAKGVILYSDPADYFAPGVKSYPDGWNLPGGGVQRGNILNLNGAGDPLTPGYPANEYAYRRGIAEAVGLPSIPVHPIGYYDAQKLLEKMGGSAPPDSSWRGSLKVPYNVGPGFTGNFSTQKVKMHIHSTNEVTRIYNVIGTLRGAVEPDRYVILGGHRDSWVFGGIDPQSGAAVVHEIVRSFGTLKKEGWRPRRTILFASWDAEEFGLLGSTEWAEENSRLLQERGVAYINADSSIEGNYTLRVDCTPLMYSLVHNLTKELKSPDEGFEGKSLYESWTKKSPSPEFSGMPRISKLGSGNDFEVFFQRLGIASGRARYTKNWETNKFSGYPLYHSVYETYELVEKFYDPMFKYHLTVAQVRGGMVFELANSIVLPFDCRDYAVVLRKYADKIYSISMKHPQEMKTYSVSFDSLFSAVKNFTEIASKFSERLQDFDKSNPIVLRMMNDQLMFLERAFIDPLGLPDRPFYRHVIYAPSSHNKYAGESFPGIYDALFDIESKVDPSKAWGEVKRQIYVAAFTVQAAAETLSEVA

| Structure (SMILES) | Kd (PSMA) [nM] | Fraction of radioligand in DPBS at 25° C., 1 h [1, 4] [%] | Fraction of radioligand in DPBS at 25° C., 2 h [1, 4] [%] | Fraction of radioligand in DPBS at 25° C., 20 h [1, 4] [%] | % Internalization, 37° C. (LNCaP cells) [%] | Internalization, 4° C. (% AD/mg Protein) (LNCaP cells) | Internalization, 37° C. (% AD/mg Protein) (LNCaP cells) | Binding, 4° C. (% AD/mg Protein) (LNCaP cells) | Binding, 37° C. (% AD/mg Protein) (LNCaP cells) | further results |
| --- | --- | --- | --- | --- | --- | --- | --- | --- | --- | --- |
| CC(C)(S)CNCCN(CCCCC(=O)N[C@@H](Cc1ccccc1)C(=O)N[C@@H](Cc1ccccc1)C(=O)N[C@H](CCCCNC(=O)CCCCCCC(=O)NCCCC[C@H](NC(=O)N[C@@H](CCC(=O)O)C(=O)O)C(=O)O)C(=O)O)CC(C)(C)S [Compound 2] | 32.1 ± 24.3 |  |  |  |  |  |  |  |  |  |
| CC(C)(S)CNCCN(CCCCC(=O)N[C@H](Cc1ccc(O)c(I)c1)C(=O)N[C@H](Cc1ccccc1)C(=O)N[C@H](CCCCNC(=O)CCCCCCC(=O)NCCCC[C@H](NC(=O)N[C@@H](CCC(=O)O)C(=O)O)C(=O)O)C(=O)O)CC(C)(C)S [Compound 4] | 4.7 ± 3.2 |  |  |  |  |  |  |  |  |  |
| O=C([O-])CN(CCN(CC(=O)[O-])Cc1cc(CCC(=O)NCCCCCC(=O)NCCCC[C@H](NC(=O)N[C@@H](CCC(=O)O)C(=O)O)C(=O)O)ccc1[O-])Cc1cc(CCC(=O)O)ccc1[O-].[68Ga+3].[OH3+] [^68Ga-PSMA11, reference compound] |  |  |  |  | 40.3 | 0.1 ± 0.0 | 0.5 ± 0.2 | 0.3 ± 0.4 | 0.8 ± 0.2 |  |

Continued, in another order:

| Kd (PSMA) [nM] | Fraction of radioligand in DPBS at 25° C., 1 h [1, 4] [%] | Fraction of radioligand in DPBS at 25° C., 2 h [1, 4] [%] | Fraction of radioligand in DPBS at 25° C., 20 h [1, 4] [%] | Structure (SMILES) | % Internalization, 37° C. (LNCaP cells) [%] | Internalization, 4° C. (% AD/mg Protein) (LNCaP cells) | Internalization, 37° C. (% AD/mg Protein) (LNCaP cells) | Binding, 4° C. (% AD/mg Protein) (LNCaP cells) | Binding, 37° C. (% AD/mg Protein) (LNCaP cells) | further results |
| --- | --- | --- | --- | --- | --- | --- | --- | --- | --- | --- |
| 7.3 |  |  |  | O=C(O)CC[C@H](NC(=O)N[C@@H](CCCCNC(=O)CCCCCCC(=O)NCCCC[C@@H](NC(=O)[C@H](CCC(=O)O)NC(=O)[C@H](CCC(=O)O)NC(=O)CCC(=O)NCCCN(CCS)CCNCCS)C(=O)O)C(=O)O)C(=O)O [Compound 6] |  |  |  |  |  |  |
|  | 88.4 ± 14.8 | 100 ± 1.8 | 98.0 ± 1.0 | CC1(C)CN(CCCCC(=O)N[C@H](Cc2ccc(O)c(I)c2)C(=O)N[C@H](Cc2ccccc2)C(=O)N[C@H](CCCCNC(=O)CCCCCCC(=O)NCCCC[C@H](NC(=O)N[C@@H](CCC(=O)O)C(=O)O)C(=O)O)C(=O)O)CC[N]2CC(C)(C)[S][99Tc]2(=[O])[S]1 (some centres unmarked) [[^99mTc]TcO-4] | 39.2 | 0.2 ± 0.0 | 1.9 ± 0.9 | 2.2 ± 0.1 | 2.9 ± 0.5 | Fraction of radioligand in DPBS at 25° C., 4 h ([1]; 4 h, normalized to fraction immediately after preparation): 105.5% |
|  | 75.9 ± 0.2 | 74.4 ± 0.1 | 18.7 | O=C(O)CC[C@H](NC(=O)N[C@@H](CCCCNC(=O)CCCCCCC(=O)NCCCC[C@@H](NC(=O)[C@H](CCC(=O)O)NC(=O)[C@H](CCC(=O)O)NC(=O)CCC(=O)NCCCN1CC[S][99Tc]2(=[O])[S]CC[N]2CC1)C(=O)O)C(=O)O)C(=O)O (some centres unmarked) [[^99mTc]TcO-6] | 38.5 | 0.2 ± 0.0 | 2.9 ± 0.2 | 2.5 ± 0.4 | 4.7 ± 0.2 | tumor-to-liver ratios among the [99mTc]-labeled radioligands [2]: a marked or a significant increase; tumor-to-muscle ratios among the [99mTc]-labeled radioligands [2]: a marked or a significant increase; Fraction of radioligand in DPBS at 25° C., after 6 h instead of 4 h ([1]; 6 h (footnote &), normalized): 72.3 ± 0.9%^&; Fraction of radioligand at indicated time point after preparation, 0 h ([3]; 0 h): 89%; Fraction of radioligand at indicated time point after preparation, 2 h ([3]; 2 h): 87%; Fraction of radioligand at indicated time point after preparation, 4 h ([3]; 4 h): 88%; Fraction of radioligand at indicated time point after preparation, 6 h ([3]; 6 h): 85% |
